From patent US20190111059A1, “COMPOSITIONS AND METHODS FOR TREATING AUTISM SPECTRUM DISORDER” (Marinus Pharmaceuticals, Inc., priority 2017, published 2019)
Where a name gives a salt, the structure may show the parent alone.

What was measured:
[1] = tested on: children with non-syndromic autism spectrum disorder (ASD) and language impairment; assay: Randomized placebo-controlled trial: Autism Symptoms Questionnaire (ASQ); format: in vivo, human; settings: lower = less autism symptoms; for ASQ Stereotypic behavior, estimated effect / ASQ Total score, estimated effect: calcium salt
Description: The Autism Symptoms Questionnaire (“ASQ) is a 34-item checklist (The Center for Autism and Related Disorders) that assesses social interaction (12 items, range 0-4), stereotyped behavior (7 items, range 0-4), communication symptoms (15 items, range 0-5) and total symptoms (34 items, […]). […] This two-arm double-blind randomized placebo-controlled parallel study with a 1:1 allocation was performed at Arkansas Children's Research Institute (Little Rock, Ark., USA) from 4 Jun. 2012 to 22 Nov. 2013. Parent and teacher questionnaires were requested at baseline and 6 and 12 weeks after starting treatment. Parents were asked to deliver baseline questionnaires to teachers or therapists. After the first visit, questionnaires were mailed to the parents and teachers at least 1 week prior to the target date of completion. Parents were asked to bring the completed teacher and parent 12-week questionnaires to the final assessment. Other questionnaires were returned in a preaddressed postage-paid envelope. The target dose of the intervention (INN: DL folinic acid calcium salt; USAN: leucovorin calcium) was 2 mg kg^−1 per day (maximum 50 mg per day) in two equally divided doses with half of the target dose given during the first 2 weeks. Dye-free, milk-product-free, vegetarian capsules were provided in three strengths (5, 10 and 25 mg) by Lee Silsby Compounding Pharmacy (Cleveland Heights, Ohio, USA). Certificate of analysis was provided for each capsule strength by an independent analytical service (Eagle Analytical Services, Houston, Tex., USA) for each batch of capsules produced. In all cases, potency was at least 99%. Secondary outcomes. Secondary outcome measures included the Ohio Autism Clinical Impression Scale (OACIS), Vineland Adaptive Behavior Scale 2nd Edition (VABS) Survey Interview Form and several questionnaires. Parents and teachers were asked to complete the Aberrant Behavior Checklist (ABC), Social Responsiveness Scale (SRS) and Behavioral Assessment System for Children 2nd Edition (BASC). Only parents were asked to complete the Autism Impact Measure (AIM) and Autism Symptoms Questionnaire (ASQ). Secondary outcome measures were analyzed using the mixed-model regression. Because of the large number of secondary outcomes, correction for multiple comparisons was conducted using the false discovery rate.

[2] = tested on: children with non-syndromic autism spectrum disorder (ASD) and language impairment; assay: Randomized placebo-controlled trial: Aberrant Behavior Checklist (ABC), parent questionnaire; format: in vivo, human; settings: lower = less problems; for ABC Hyperactivity, estimated effect / ABC Inappropriate speech, estimated effect / ABC Irritability, estimated effect / ABC Lethargy, estimated effect / ABC Stereotyped behavior, estimated effect / ABC Total Score, estimated effect: vs placebo, mixed-model regression, calcium salt
From the text: The Aberrant Behavior Checklist (“ABC”) is a 58-item questionnaire that measures disruptive behaviors, including Irritability (15 items, range 0-45); Social Withdrawal (16 items, range 0-48); Stereotypy (7 items, range 0-21); Hyperactivity (16 items, range 0-48) and Inappropriate Speech (4 items, range 0-12). Each item is rated 0 to 3 with higher scores indicating greater severity. Multiple ASD clinical trials have used it and it has convergent and divergent validity. […] This two-arm double-blind randomized placebo-controlled parallel study with a 1:1 allocation was performed at Arkansas Children's Research Institute (Little Rock, Ark., USA) from 4 Jun. 2012 to 22 Nov. 2013. Parent and teacher questionnaires were requested at baseline and 6 and 12 weeks after starting treatment. Parents were asked to deliver baseline questionnaires to teachers or therapists. After the first visit, questionnaires were mailed to the parents and teachers at least 1 week prior to the target date of completion. Parents were asked to bring the completed teacher and parent 12-week questionnaires to the final assessment. Other questionnaires were returned in a preaddressed postage-paid envelope. The target dose of the intervention (INN: DL folinic acid calcium salt; USAN: leucovorin calcium) was 2 mg kg^−1 per day (maximum 50 mg per day) in two equally divided doses with half of the target dose given during the first 2 weeks. Dye-free, milk-product-free, vegetarian capsules were provided in three strengths (5, 10 and 25 mg) by Lee Silsby Compounding Pharmacy (Cleveland Heights, Ohio, USA). Certificate of analysis was provided for each capsule strength by an independent analytical service (Eagle Analytical Services, Houston, Tex., USA) for each batch of capsules produced. In all cases, potency was at least 99%. Secondary outcomes. Secondary outcome measures included the Ohio Autism Clinical Impression Scale (OACIS), Vineland Adaptive Behavior Scale 2nd Edition (VABS) Survey Interview Form and several questionnaires. Parents and teachers were asked to complete the Aberrant Behavior Checklist (ABC), Social Responsiveness Scale (SRS) and Behavioral Assessment System for Children 2nd Edition (BASC). Only parents were asked to complete the Autism Impact Measure (AIM) and Autism Symptoms Questionnaire (ASQ). Secondary outcome measures were analyzed using the mixed-model regression. Because of the large number of secondary outcomes, correction for multiple comparisons was conducted using the false discovery rate.

[3] = vs placebo, mixed-model regression
[4] = vs placebo, mixed-model regression, listed as folinic acid

Which results are given for Nc1nc2c(c(=O)[nH]1)N(C=O)C(CNc1ccc(C(=O)N[C@@H](CCC(=O)O)C(=O)O)cc1)CN2 (mixture of isomers) [Folinic acid, DL folinic acid calcium salt]?
ASQ Stereotypic behavior, 12-week assessment mean ([1]; 2 mg kg^−1 per day, 12 weeks, baseline 3.1): 3.2 Raw Score; ASQ Social, 12-week assessment mean ([1]; 2 mg kg^−1 per day, 12 weeks, baseline 3.5): 3.3 Raw Score; ASQ Communication, 12-week assessment mean ([1]; 2 mg kg^−1 per day, 12 weeks, baseline 4.7): 4.7 Raw Score; ASQ Total score, 12-week assessment mean ([1]; 2 mg kg^−1 per day, 12 weeks, baseline 11.3): 11.2 Raw Score; ASQ Communication, estimated effect [1, 3]: 0.0 Raw Score; ASQ Social, estimated effect [1, 3]: −0.1 Raw Score; ASQ Stereotypic behavior, estimated effect [1, 3]: −0.2 Raw Score; ASQ Total score, estimated effect [1, 3]: −0.3 Raw Score; ASQ Stereotypic behavior, estimated effect [1, 4]: significantly improved; ASQ Total score, estimated effect [1, 4]: significantly improved; ABC Inappropriate speech, 12-week assessment mean ([2]; 2 mg kg^−1 per day, 12 weeks, baseline 5.2): 4.0 Raw Score; ABC Stereotyped behavior, 12-week assessment mean ([2]; 2 mg kg^−1 per day, 12 weeks, baseline 6.1): 3.7 Raw Score; ABC Lethargy, 12-week assessment mean ([2]; 2 mg kg^−1 per day, 12 weeks, baseline 13.1): 9.7 Raw Score; ABC Irritability, 12-week assessment mean ([2]; 2 mg kg^−1 per day, 12 weeks, baseline 13.4): 9.1 Raw Score; ABC Hyperactivity, 12-week assessment mean ([2]; 2 mg kg^−1 per day, 12 weeks, baseline 25.0): 22.1 Raw Score; ABC Total Score, 12-week assessment mean ([2]; 2 mg kg^−1 per day, 12 weeks, baseline 62.7): 48.5 Raw Score; ABC Hyperactivity, estimated effect [2]: −1.8 Raw Score; ABC Inappropriate speech, estimated effect [2]: −1.7 Raw Score; ABC Irritability, estimated effect [2]: −1.2 Raw Score; ABC Lethargy, estimated effect [2]: −1.4 Raw Score; ABC Stereotyped behavior, estimated effect [2]: −0.9 Raw Score; ABC Total Score, estimated effect [2]: −4.7 Raw Score; ABC Hyperactivity, estimated effect ([2]; listed as folinic acid): significantly improved; ABC Inappropriate speech, estimated effect ([2]; listed as folinic acid): significantly improved; ABC Irritability, estimated effect ([2]; listed as folinic acid): significantly improved; ABC Lethargy, estimated effect ([2]; listed as folinic acid): significantly improved; ABC Stereotyped behavior, estimated effect ([2]; listed as folinic acid): significantly improved; ABC Total Score, estimated effect ([2]; listed as folinic acid): significantly improved
